Measurements from paper PMC7719179, “Small molecule inhibition of Dynamin-dependent endocytosis targets multiple niche signals and impairs leukemia stem cells” (Nature Communications, 2020).
Several values for one entry are separate records, joined by “and”; a condition that tells them apart may be missing. Equal values may be shown once.

Key:
[1] = tested on: pre-leukemic clones in DN3a cells; assay: Tcrβ gene rearrangement (clonality) in DN3a thymocytes of treated Lmo2^Tg mice; type: in vivo, mouse
Protocol: page 8: Supplementary Figure 4. […] therapy (VXL) or combination therapy was administered. Mean ± SEM, 2 -way ANOVA with Tukey’s […] poly-clonal Tcrβ gene rearrangements (pie charts) in these purified thymocytes (n = 5).

[2] = tested on: pSTAT5 and pERK in patient-derived AML cells; assay: Cytokine-induced pSTAT5 and pERK in patient-derived AML cells; type: cell-based, human; details: for pERK relative expression, FOLD / pSTAT5 relative expression, FOLD: fold over unstimulated; for pSTAT5 FOLD: relative expression vs Unstimulated
Protocol: All bone marrow or peripheral blood samples from patients with AML were collected after informed consent, in accordance with guidelines approved by the Human Research Ethics Committee of Alfred Health. Human AML cells were thawed, washed, and adjusted to 2 × 10^6 cells/mL in Iscove’s Modified Dulbecco’s Media (#12440053, Gibco, Grand Island NY, USA) supplemented with Glutamax 2 mM (Gibco) and 1% v/v Penicillin/Streptomycin (Gibco). […] For cytokine-mediated signalling assays, cells were incubated with vehicle or Dynole 34-2 for 1 h, and subsequently stimulated with either 25 ng/mL rhIL-3 (#200-03, Pepro Tech), 25 ng/mL rhGM-CSF (#300-03, Pepro Tech) or 125 ng/mL rhSCF (#300-07, Pepro Tech) at 37 °C for 20 min. Cells were washed twice using cold PBS 1× and flow cytometry analyses were done on single-cell suspensions using BD Pharmingen antibodies against human CD45 (#557748), IL-3R (CD123, #560087), GM-CSFR alpha chain (CD116, #554532) and BioLegend antibody against human KIT (A3C6E2). For assessing intracellular levels of pSTAT5 and phospho-ERK, flow cytometry analyses were performed in duplicate on patient-derived AML cells as described in the FACS analysis section. The MFI observed without stimulation was reported as 1.

CCCCCCCCNC(=O)C(C#N)=Cc1cn(CCCN(C)C)c2ccccc12 [Dynole 34-2, 2-Cyano-N-octyl-3-(1-(3-dimethylaminopropyl)-1H-indol-3-yl)-acrylamide]
Clonality (%) for each sample: Oligoclonal ([1]; mouse, in vivo): 100% and 50% | clonality of DN3a cells by Tcrβ rearrangement ([1]; treated Lmo2^Tg mice, result in words): reduced monoclonality | pERK relative expression, MFI ([2]; AML01-021): 1807 MFI | pSTAT5 relative expression, MFI ([2]; AML01-021): 4941 MFI | pStat5 (MFI) ([2]; AML01-021): 2538 MFI | pERK relative expression, FOLD ([2]; AML01-021): 1.07 FOLD | pSTAT5 relative expression, FOLD ([2]; AML01-021): 1.87 FOLD | pSTAT5 FOLD ([2]; AML01-021): 1.02 | pERK relative expression, MFI ([2]; AML01-050): 10447 MFI | pSTAT5 relative expression, MFI ([2]; AML01-050): 19500 MFI | pStat5 (MFI) ([2]; AML01-050): 29884 MFI | pERK relative expression, FOLD ([2]; AML01-050): 1.28 FOLD | pSTAT5 relative expression, FOLD ([2]; AML01-050): 0.97 FOLD | pSTAT5 FOLD ([2]; AML01-050): 0.84 | pERK relative expression, MFI ([2]; AML01-072): 2195 MFI | pSTAT5 relative expression, MFI ([2]; AML01-072): 18325 MFI | pStat5 (MFI) ([2]; AML01-072): 10160 MFI | pERK relative expression, FOLD ([2]; AML01-072): 1.01 FOLD | pSTAT5 relative expression, FOLD ([2]; AML01-072): 0.91 FOLD | pSTAT5 FOLD ([2]; AML01-072): 0.88 | pERK relative expression, MFI ([2]; AML01-226): 1574 MFI | pSTAT5 relative expression, MFI ([2]; AML01-226): 673 MFI | pStat5 (MFI) ([2]; AML01-226): 511 MFI | pERK relative expression, FOLD ([2]; AML01-226): 1.05 FOLD | pSTAT5 relative expression, FOLD ([2]; AML01-226): 0.89 FOLD | pSTAT5 FOLD ([2]; AML01-226): 1.01 | pERK relative expression, MFI ([2]; AML01-307): 2891 MFI | pSTAT5 relative expression, MFI ([2]; AML01-307): 12933 MFI | pStat5 (MFI) ([2]; AML01-307): 10786 MFI | pERK relative expression, FOLD ([2]; AML01-307): 1.06 FOLD | pSTAT5 relative expression, FOLD ([2]; AML01-307): 1.07 FOLD | pSTAT5 FOLD ([2]; AML01-307): 1.08 | pERK relative expression, MFI ([2]; AML02-078): 5047 MFI | pSTAT5 relative expression, MFI ([2]; AML02-078): 31582 MFI | pStat5 (MFI) ([2]; AML02-078): 31914 MFI | pERK relative expression, FOLD ([2]; AML02-078): 0.79 FOLD | pSTAT5 relative expression, FOLD ([2]; AML02-078): 1.24 FOLD | pSTAT5 FOLD ([2]; AML02-078): 1.05 | pERK relative expression, MFI ([2]; AML02-123): 4380 MFI | pSTAT5 relative expression, MFI ([2]; AML02-123): 22757 MFI | pStat5 (MFI) ([2]; AML02-123): 30741 MFI | pERK relative expression, FOLD ([2]; AML02-123): 1.16 FOLD | pSTAT5 relative expression, FOLD ([2]; AML02-123): 1.15 FOLD | pSTAT5 FOLD ([2]; AML02-123): 1.00 | pERK relative expression, MFI ([2]; AML02-232): 1644 MFI | pSTAT5 relative expression, MFI ([2]; AML02-232): 1406 MFI | pStat5 (MFI) ([2]; AML02-232): 688 MFI | pERK relative expression, FOLD ([2]; AML02-232): 1.04 FOLD | pSTAT5 relative expression, FOLD ([2]; AML02-232): 1.59 FOLD | pSTAT5 FOLD ([2]; AML02-232): 0.73 | pERK relative expression, MFI ([2]; AML03-330): 10652 MFI | pSTAT5 relative expression, MFI ([2]; AML03-330): 5650 MFI | pStat5 (MFI) ([2]; AML03-330): 6696 MFI | pERK relative expression, FOLD ([2]; AML03-330): 0.97 FOLD | pSTAT5 relative expression, FOLD ([2]; AML03-330): 1.04 FOLD | pSTAT5 FOLD ([2]; AML03-330): 1.02 | pERK relative expression, MFI ([2]; AML03-331): 1814 MFI | pSTAT5 relative expression, MFI ([2]; AML03-331): 1899 MFI | pStat5 (MFI) ([2]; AML03-331): 2344 MFI | pERK relative expression, FOLD ([2]; AML03-331): 0.94 FOLD | pSTAT5 relative expression, FOLD ([2]; AML03-331): 1.03 FOLD | pSTAT5 FOLD ([2]; AML03-331): 1.02 | pERK relative expression, MFI ([2]; AML4): 1091 MFI | pSTAT5 relative expression, MFI ([2]; AML4): 3442 MFI | pStat5 (MFI) ([2]; AML4): 3071 MFI | pERK relative expression, FOLD ([2]; AML4): 1.13 FOLD | pSTAT5 relative expression, FOLD ([2]; AML4): 0.95 FOLD | pSTAT5 FOLD ([2]; AML4): 0.85 | pERK relative expression, MFI ([2]; AML16): 2510 MFI | pSTAT5 relative expression, MFI ([2]; AML16): 17405 MFI | pStat5 (MFI) ([2]; AML16): 13885 MFI | pERK relative expression, FOLD ([2]; AML16): 0.44 FOLD | pSTAT5 relative expression, FOLD ([2]; AML16): 0.88 FOLD | pSTAT5 FOLD ([2]; AML16): 0.70 | pERK relative expression, MFI ([2]; AML17): 822 MFI | pSTAT5 relative expression, MFI ([2]; AML17): 3831 MFI | pStat5 (MFI) ([2]; AML17): 3091 MFI | pERK relative expression, FOLD ([2]; AML17): 0.99 FOLD | pSTAT5 relative expression, FOLD ([2]; AML17): 1.02 FOLD | pSTAT5 FOLD ([2]; AML17): 1.01 | pERK relative expression, MFI ([2]; AML18): 985 MFI | pSTAT5 relative expression, MFI ([2]; AML18): 4716 MFI | pStat5 (MFI) ([2]; AML18): 4188 MFI | pERK relative expression, FOLD ([2]; AML18): 0.99 FOLD | pSTAT5 relative expression, FOLD ([2]; AML18): 0.86 FOLD | pSTAT5 FOLD ([2]; AML18): 1.02 | pERK relative expression, MFI ([2]; AML34): 2315 MFI | pStat5 (MFI) ([2]; AML34): 10444 MFI | pERK relative expression, FOLD ([2]; AML34): 0.84 FOLD | pSTAT5 FOLD ([2]; AML34): 1.43 | pERK relative expression, MFI ([2]; AML54): 2163 MFI | pStat5 (MFI) ([2]; AML54): 4818 MFI | pERK relative expression, FOLD ([2]; AML54): 0.94 FOLD | pSTAT5 FOLD ([2]; AML54): 0.89 | downstream signalling (pSTAT5) in human AML cells ([2]; result in words): blocked downstream signalling
